Data from publication PMC7253423, “Quassinoid analogs with enhanced efficacy for treatment of hematologic malignancies target the PI3Kγ isoform” (Communications Biology, 2020).

Assays:
[1] = target: T1, JUP encoded protein (junction plakoglobin) (Homo sapiens, UniProt P14923); test: Streptavidin pull-down and mass spectrometry; format: binding; details: Raji lysates, gene JUP
T1 construct: endogenous in cells; host or cells: Raji cells (lysate)
Method: (§1) Two hundred million Raji cells were harvested and lysed with RIPA buffer [1% Nonidet P-40 (NP-40), 10 mM Tris (pH8.0), 2 mM EDTA, 150 mM NaCl, supplemented with protease inhibitors (1 mM phenylmethylsulphonyl fluoride (PMSF), 1 μg/ml each Aprotinin, Pepstatin, and Leupeptin)]. Twenty milligram lysates were combined with magnetic Streptavidin beads as well as biotin-conjugated compounds 51046, 51048, or 51052, respectively. The complexes were incubated overnight with rotation at 4 °C. The immunoprecipitated samples were washed with RIPA three times and resolved on an SDS-PAGE gel.
(§2) The following Mass Spectrometry proteomics resources and services are provided by the Quantitative Proteomics Resource Core at School of Medicine at the University of Pennsylvania. Briefly, the peptides were extracted from the gel band and analyzed with an Orbitrap Fusion (Thermo Fisher Scientific, San Jose, CA, USA) attached to an EasyLC 1000 system (Thermo Fisher Scientific, San Jose, CA, USA) at 400 nL/min. The raw MS data were processed using MaxQuant (Version 1.5.3.30)[61], and searched with the UniProt human database. Then the target-decoy approach was used to filter the search results, in which the false discovery rate was less than 1% at the peptide and protein level.

[2] = target: T2, PIK3C2B encoded protein (PI3KC2β) (Homo sapiens, UniProt O00750); test: Streptavidin pull-down and mass spectrometry; format: binding; details: Raji lysates, gene PIK3C2B
T2 construct: endogenous in cells; host or cells: Raji cells (lysate)
Method: as §1, §2

AKT1 = target: T3, AKT1 (Homo sapiens, UniProt P31749); test: Competitive binding pull-down assay in SU-DHL-4 cell lysates, western blot; details: SU-DHL-4 lysates
T3 construct: endogenous in cells; host or cells: SU-DHL-4 cells (lysate)
Method: (§3) Thirty microgram of purified GST-tagged proteins were pre-cleared with Dynabeads M-280 Streptavidin (Invitrogen, Carlsbad, CA, USA). […] The complexes were harvested and washed with PBS. The collected beads were mixed with SDS loading buffer for further analysis.
(§4) Western blot analyses were performed as previously described. Briefly, total cell lysates were separated by SDS-PAGE gel and transferred to nitrocellulose membrane. The membranes were blocked with 5% non-fat milk, probed with specific antibodies, and visualized using the Odyssey scanner (LiCor Inc., Lincoln, NE).

GAPDH = target: T4, GAPDH (Homo sapiens, UniProt P04406); test: as above; details: SU-DHL-4 lysates
T4 construct: endogenous in cells; host or cells: SU-DHL-4 cells (lysate)
Method: as §3, §4

PI3Kγ = target: T5, PI3Kγ (Homo sapiens, UniProt P48736); test: as above; details: SU-DHL-4 lysates, biotin derivative alone
T5 construct: endogenous in cells; host or cells: SU-DHL-4 cells (lysate)
Method: as §3, §4

[3] = target: T6, PIK3CG encoded protein (PI3Kγ) (Homo sapiens, UniProt P48736); test: Streptavidin pull-down and mass spectrometry; format: binding; details: Raji lysates, gene PIK3CG
T6 construct: endogenous in cells; host or cells: Raji cells (lysate)
Method: as §1, §2

[4] = target: T7, TP73 encoded protein (P73) (Homo sapiens, UniProt O15350); test: Streptavidin pull-down and mass spectrometry; format: binding; details: Raji lysates, gene TP73
T7 construct: endogenous in cells; host or cells: Raji cells (lysate)
Method: as §1, §2

GST-tagged PI3Kγ protein = target: T8, GST-tagged PI3Kγ protein (Homo sapiens, UniProt P48736); test: In vitro pull-down assay with purified protein; format: binding; details: 0, 300 μM, or 500 μM compound, Dynabeads M-280 Streptavidin
T8 construct: made in house; host or cells: E. coli BL21 (DE3)
Text: PIK3CG cDNA (Plasmid #20574) was purchased from Addgene and cloned into a pGEX-6P-1 vector (GE Healthcare, Madison, WI, USA) with SalI and NotI (NEB, USA). This GST-tagged PIK3CG plasmid was transformed into E. coli BL21 (DE3)-competent cells (Life Technologies, Carlsbad, CA, USA) for in vitro expression according to Molecular Cloning (Third Edition).
as §3

T7 sequence (O15350 whole entry): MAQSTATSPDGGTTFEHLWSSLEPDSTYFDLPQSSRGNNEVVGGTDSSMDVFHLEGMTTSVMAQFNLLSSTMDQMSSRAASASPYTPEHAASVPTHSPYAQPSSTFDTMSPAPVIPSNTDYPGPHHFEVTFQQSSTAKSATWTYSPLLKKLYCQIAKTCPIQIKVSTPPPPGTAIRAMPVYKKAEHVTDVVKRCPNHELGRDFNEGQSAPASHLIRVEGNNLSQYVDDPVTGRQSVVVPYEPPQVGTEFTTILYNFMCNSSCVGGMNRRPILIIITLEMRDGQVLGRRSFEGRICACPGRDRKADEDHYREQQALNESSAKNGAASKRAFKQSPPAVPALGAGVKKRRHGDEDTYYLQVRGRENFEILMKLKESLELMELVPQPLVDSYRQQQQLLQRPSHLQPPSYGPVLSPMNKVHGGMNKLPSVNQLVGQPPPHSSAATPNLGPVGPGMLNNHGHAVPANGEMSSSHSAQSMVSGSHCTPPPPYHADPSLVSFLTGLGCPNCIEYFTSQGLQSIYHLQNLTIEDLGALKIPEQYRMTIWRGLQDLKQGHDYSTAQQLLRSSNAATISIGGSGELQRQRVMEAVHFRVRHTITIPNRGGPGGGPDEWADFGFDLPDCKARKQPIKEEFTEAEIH
T2 sequence (O00750 whole entry): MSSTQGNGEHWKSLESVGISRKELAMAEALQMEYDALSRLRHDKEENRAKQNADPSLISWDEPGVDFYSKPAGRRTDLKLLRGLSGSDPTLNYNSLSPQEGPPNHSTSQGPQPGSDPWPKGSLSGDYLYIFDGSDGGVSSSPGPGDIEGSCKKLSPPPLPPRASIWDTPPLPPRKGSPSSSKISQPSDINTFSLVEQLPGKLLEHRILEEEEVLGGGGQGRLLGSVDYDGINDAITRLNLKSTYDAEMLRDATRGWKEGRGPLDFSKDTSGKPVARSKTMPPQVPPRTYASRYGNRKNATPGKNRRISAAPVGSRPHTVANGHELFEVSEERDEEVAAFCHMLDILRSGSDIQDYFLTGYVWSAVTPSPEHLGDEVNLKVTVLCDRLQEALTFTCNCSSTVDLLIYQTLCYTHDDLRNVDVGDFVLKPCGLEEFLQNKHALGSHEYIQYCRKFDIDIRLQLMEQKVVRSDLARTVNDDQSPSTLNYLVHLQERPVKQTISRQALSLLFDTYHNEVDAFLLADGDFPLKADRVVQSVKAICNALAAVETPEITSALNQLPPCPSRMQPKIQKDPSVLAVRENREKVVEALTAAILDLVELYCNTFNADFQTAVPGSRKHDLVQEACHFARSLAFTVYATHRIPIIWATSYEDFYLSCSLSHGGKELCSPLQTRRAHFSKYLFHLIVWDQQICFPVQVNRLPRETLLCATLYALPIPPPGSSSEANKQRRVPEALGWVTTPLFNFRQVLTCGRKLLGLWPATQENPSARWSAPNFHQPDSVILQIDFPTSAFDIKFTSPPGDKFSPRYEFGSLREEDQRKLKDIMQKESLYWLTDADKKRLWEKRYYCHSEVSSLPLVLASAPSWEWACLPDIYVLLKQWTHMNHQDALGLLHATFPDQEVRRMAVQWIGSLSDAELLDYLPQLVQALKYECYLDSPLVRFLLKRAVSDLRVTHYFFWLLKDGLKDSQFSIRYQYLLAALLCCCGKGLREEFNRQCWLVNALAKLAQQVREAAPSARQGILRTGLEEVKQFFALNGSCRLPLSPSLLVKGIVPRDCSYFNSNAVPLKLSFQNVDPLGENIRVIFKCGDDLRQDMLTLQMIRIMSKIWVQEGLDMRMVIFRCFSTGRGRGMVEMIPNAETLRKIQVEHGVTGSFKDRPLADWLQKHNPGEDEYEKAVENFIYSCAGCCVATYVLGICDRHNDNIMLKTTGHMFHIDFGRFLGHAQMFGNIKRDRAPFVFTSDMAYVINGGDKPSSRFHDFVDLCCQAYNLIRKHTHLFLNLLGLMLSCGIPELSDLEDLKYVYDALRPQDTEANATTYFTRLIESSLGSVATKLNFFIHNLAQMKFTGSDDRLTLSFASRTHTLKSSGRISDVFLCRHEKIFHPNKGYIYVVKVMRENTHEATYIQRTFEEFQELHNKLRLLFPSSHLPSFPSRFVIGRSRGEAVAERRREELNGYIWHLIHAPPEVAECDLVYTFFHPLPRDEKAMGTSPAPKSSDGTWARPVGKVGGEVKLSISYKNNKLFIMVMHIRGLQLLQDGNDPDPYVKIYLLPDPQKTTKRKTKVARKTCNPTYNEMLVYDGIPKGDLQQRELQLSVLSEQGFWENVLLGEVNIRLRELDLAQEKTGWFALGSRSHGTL
T6 sequence (P48736 whole entry): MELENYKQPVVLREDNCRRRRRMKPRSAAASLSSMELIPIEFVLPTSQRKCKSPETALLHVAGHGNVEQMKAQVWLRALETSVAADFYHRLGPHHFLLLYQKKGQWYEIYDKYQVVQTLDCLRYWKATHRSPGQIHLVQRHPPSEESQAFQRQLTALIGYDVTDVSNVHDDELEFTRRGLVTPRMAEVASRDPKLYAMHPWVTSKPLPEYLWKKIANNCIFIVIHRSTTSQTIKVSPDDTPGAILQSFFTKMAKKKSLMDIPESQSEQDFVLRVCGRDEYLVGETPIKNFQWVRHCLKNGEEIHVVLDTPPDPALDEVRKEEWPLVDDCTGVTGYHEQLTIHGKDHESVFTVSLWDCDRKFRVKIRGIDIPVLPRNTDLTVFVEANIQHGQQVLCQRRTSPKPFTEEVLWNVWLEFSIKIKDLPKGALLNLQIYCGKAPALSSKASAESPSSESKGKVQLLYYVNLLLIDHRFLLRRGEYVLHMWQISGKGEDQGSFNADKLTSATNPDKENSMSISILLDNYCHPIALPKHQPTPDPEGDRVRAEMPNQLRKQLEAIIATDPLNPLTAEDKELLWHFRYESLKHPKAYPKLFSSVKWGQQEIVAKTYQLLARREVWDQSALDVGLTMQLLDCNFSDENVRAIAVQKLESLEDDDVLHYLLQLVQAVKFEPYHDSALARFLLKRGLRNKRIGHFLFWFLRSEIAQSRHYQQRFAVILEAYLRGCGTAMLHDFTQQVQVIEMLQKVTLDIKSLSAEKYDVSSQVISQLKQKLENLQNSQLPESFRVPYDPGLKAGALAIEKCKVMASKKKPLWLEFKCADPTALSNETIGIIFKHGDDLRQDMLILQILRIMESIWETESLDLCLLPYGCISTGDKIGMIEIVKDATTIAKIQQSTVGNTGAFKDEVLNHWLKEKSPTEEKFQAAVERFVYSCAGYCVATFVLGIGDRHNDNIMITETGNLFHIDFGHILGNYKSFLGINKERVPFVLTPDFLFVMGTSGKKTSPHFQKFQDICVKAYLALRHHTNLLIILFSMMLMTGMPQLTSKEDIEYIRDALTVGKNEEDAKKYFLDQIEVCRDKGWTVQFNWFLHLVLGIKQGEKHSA
T5 sequence (P48736 whole entry): as above
T8 sequence (P48736 whole entry): as above
T1 sequence (P14923 whole entry): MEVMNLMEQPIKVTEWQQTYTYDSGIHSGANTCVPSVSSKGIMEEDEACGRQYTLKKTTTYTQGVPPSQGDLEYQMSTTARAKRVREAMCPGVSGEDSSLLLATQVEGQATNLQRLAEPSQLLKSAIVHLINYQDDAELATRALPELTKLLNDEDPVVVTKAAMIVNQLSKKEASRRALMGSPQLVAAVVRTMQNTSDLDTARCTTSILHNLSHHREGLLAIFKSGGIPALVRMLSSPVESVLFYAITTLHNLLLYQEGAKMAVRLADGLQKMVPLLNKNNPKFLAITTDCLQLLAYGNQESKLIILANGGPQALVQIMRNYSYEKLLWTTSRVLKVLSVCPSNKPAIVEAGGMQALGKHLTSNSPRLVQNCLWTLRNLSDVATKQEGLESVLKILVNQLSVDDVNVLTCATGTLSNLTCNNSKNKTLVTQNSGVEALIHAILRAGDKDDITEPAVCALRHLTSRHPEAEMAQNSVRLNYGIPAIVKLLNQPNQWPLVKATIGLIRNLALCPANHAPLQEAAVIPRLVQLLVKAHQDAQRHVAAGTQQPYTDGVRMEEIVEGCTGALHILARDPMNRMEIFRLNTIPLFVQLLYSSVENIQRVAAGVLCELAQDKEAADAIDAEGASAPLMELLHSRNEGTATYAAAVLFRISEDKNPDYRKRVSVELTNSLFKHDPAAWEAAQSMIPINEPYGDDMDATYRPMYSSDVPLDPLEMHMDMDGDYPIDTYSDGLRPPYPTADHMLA
T3 sequence (P31749 whole entry): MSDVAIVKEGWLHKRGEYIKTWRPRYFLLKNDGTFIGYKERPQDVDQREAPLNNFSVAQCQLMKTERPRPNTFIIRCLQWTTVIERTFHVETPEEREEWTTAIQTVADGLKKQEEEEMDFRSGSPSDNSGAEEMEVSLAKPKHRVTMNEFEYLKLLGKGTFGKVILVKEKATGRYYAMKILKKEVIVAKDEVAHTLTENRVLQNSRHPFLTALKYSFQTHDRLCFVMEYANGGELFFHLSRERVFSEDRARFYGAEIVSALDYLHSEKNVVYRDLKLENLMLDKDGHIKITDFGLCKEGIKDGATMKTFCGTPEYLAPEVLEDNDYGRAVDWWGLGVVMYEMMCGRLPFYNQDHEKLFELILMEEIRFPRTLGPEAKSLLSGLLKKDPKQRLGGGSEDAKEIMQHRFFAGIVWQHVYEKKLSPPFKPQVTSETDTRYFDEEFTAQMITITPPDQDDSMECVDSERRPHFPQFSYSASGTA
T4 sequence (P04406 whole entry): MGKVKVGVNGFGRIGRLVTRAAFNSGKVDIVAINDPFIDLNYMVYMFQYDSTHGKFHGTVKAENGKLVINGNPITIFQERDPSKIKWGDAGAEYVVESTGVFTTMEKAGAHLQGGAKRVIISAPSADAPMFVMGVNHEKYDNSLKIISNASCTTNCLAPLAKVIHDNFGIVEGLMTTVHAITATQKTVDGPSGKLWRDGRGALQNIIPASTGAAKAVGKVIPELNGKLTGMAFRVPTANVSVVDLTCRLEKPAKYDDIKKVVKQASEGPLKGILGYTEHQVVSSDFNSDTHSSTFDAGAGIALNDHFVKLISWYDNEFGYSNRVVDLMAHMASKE

SMILES | Score (sum of the ion scores of all peptides identified) [1] | Score (sum of the ion scores of all peptides identified) [2] | AKT1 pulled down (AKT1) | GAPDH pulled down (GAPDH) | binding activity with PI3Kγ (PI3Kγ) | Score (sum of the ion scores of all peptides identified) [3] | Score (sum of the ion scores of all peptides identified) [4] | association with GST-tagged PI3Kγ (GST-tagged PI3Kγ protein)
COC(=O)C12OCC34C(CC5C(C)=C(OC(=O)CCCCC6SCC7NC(=O)NC76)C(=O)CC5(C)C3C(O)C1O)OC(=O)C(OC(=O)C=C(C)C)C24 (centres unmarked) [compound 51048] | 11.324 | 5.9631 | little or no detectable levels | little or no detectable levels | relatively strong | – | – | –
COC(=O)C12OCC34C(CC5C(C)=C(OC(=O)CCCCCNC(=O)CCCCC6SCC7NC(=O)NC76)C(=O)CC5(C)C3C(O)C1O)OC(=O)C(OC(=O)C=C(C)C)C24 (centres unmarked) [compound 51052] | – | – | – | – | – | 6.132 | 6.0132 | formed a complex
